In the supplement of paper PMC10307832:

How the values were obtained:
Assay in all cases: relative viability (nuclei count vs DMSO), 5 days (fraction); higher = more cells survive
NCI-H2405 = tested on: NCI-H2405
How it was run: (§1)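 Dosing by pin tool came one day after lung cancer cell lines were seeded in 1536-well plates, using either one drug or a fixed anchor-drug dose plus five library-drug doses (not always all listed) in √10 steps. After 5 days, nuclei were counted on 4× images. Relative viability is treated-well nuclei count divided by vehicle-well nuclei count, and values are medians of duplicate plates.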

NCI-H1355 = tested on: NCI-H1355
How it was run: as §1

NCI-H441 = tested on: NCI-H441
How it was run: as §1

NCI-H23 = tested on: NCI-H23
How it was run: as §1

SK-MES-1 = tested on: SK-MES-1
How it was run: as §1

NCI-H2023 = tested on: NCI-H2023
How it was run: as §1

NCI-H727 = tested on: NCI-H727
How it was run: as §1

NCI-H2009 = tested on: NCI-H2009
How it was run: as §1

UMC-11 = tested on: UMC-11
How it was run: as §1

NCI-H322M = tested on: NCI-H322M
How it was run: as §1

LCLC-97TM1 = tested on: LCLC-97TM1
How it was run: as §1

NCI-H1755 = tested on: NCI-H1755
How it was run: as §1

NCI-H2085 = tested on: NCI-H2085
How it was run: as §1

ChaGo-K-1 = tested on: ChaGo-K-1
How it was run: as §1

LOU-NH91 = tested on: LOU-NH91
How it was run: as §1

NCI-H2170 = tested on: NCI-H2170
How it was run: as §1

NCI-H650 = tested on: NCI-H650
How it was run: as §1

RERF-LC-KJ = tested on: RERF-LC-KJ
How it was run: as §1

NCI-H1437 = tested on: NCI-H1437
How it was run: as §1

HCC-78 = tested on: HCC-78
How it was run: as §1

ABC-1 = tested on: ABC-1
How it was run: as §1

HOP-62 = tested on: HOP-62
How it was run: as §1

## O=c1[nH]c2ccccc2n1C1CCN(CCCC(c2ccc(F)cc2)c2ccc(F)cc2)CC1 [Pimozide] + Cc1cc(Nc2cc(N3CCN(C)CC3)nc(Sc3ccc(NC(=O)C4CC4)cc3)n2)n[nH]1 [Tozasertib] (partner 0.1 µM)
NCI-H2405; first compound 0.08 µM
  relative viability: 0.754
NCI-H2405; first compound 0.253 µM
  relative viability: 0.712
NCI-H2405; first compound 0.8 µM
  relative viability: 0.683
NCI-H2405; first compound 2.53 µM
  relative viability: 0.673
NCI-H2405; first compound 8 µM
  relative viability: 0.575
NCI-H1355; first compound 0.08 µM
  relative viability: 0.569
NCI-H1355; first compound 0.253 µM
  relative viability: 0.534
NCI-H1355; first compound 0.8 µM
  relative viability: 0.462
NCI-H1355; first compound 2.53 µM
  relative viability: 0.376
NCI-H1355; first compound 8 µM
  relative viability: 0.414
NCI-H441; first compound 0.08 µM
  relative viability: 0.655
NCI-H441; first compound 0.253 µM
  relative viability: 0.614
NCI-H441; first compound 0.8 µM
  relative viability: 0.569
NCI-H441; first compound 2.53 µM
  relative viability: 0.546
NCI-H441; first compound 8 µM
  relative viability: 0.618
NCI-H23; first compound 0.08 µM
  relative viability: 0.386
NCI-H23; first compound 0.253 µM
  relative viability: 0.396
NCI-H23; first compound 0.8 µM
  relative viability: 0.348
NCI-H23; first compound 2.53 µM
  relative viability: 0.336
NCI-H23; first compound 8 µM
  relative viability: 0.314
SK-MES-1; first compound 0.08 µM
  relative viability: 0.821
SK-MES-1; first compound 0.253 µM
  relative viability: 0.822
SK-MES-1; first compound 0.8 µM
  relative viability: 0.873
SK-MES-1; first compound 2.53 µM
  relative viability: 0.824
SK-MES-1; first compound 8 µM
  relative viability: 0.815
NCI-H2023; first compound 0.08 µM
  relative viability: 0.352
NCI-H2023; first compound 0.253 µM
  relative viability: 0.314
NCI-H2023; first compound 0.8 µM
  relative viability: 0.454
NCI-H2023; first compound 2.53 µM
  relative viability: 0.228
NCI-H2023; first compound 8 µM
  relative viability: 0.237
NCI-H727; first compound 0.08 µM
  relative viability: 0.734
NCI-H727; first compound 0.253 µM
  relative viability: 0.694
NCI-H727; first compound 0.8 µM
  relative viability: 0.509
NCI-H727; first compound 2.53 µM
  relative viability: 0.65
NCI-H727; first compound 8 µM
  relative viability: 0.496
NCI-H2009; first compound 0.08 µM
  relative viability: 0.696
NCI-H2009; first compound 0.253 µM
  relative viability: 0.754
NCI-H2009; first compound 0.8 µM
  relative viability: 0.683
NCI-H2009; first compound 2.53 µM
  relative viability: 0.58
NCI-H2009; first compound 8 µM
  relative viability: 0.577
UMC-11; first compound 0.08 µM
  relative viability: 0.188
UMC-11; first compound 0.253 µM
  relative viability: 0.201
UMC-11; first compound 0.8 µM
  relative viability: 0.205
UMC-11; first compound 2.53 µM
  relative viability: 0.205
UMC-11; first compound 8 µM
  relative viability: 0.205
NCI-H322M; first compound 0.253 µM
  relative viability: 0.51
NCI-H322M; first compound 0.8 µM
  relative viability: 0.523
NCI-H322M; first compound 2.53 µM
  relative viability: 0.515
NCI-H322M; first compound 8 µM
  relative viability: 0.425
LCLC-97TM1; first compound 0.08 µM
  relative viability: 0.265
LCLC-97TM1; first compound 0.253 µM
  relative viability: 0.212
LCLC-97TM1; first compound 0.8 µM
  relative viability: 0.225
LCLC-97TM1; first compound 2.53 µM
  relative viability: 0.173
LCLC-97TM1; first compound 8 µM
  relative viability: 0.193
NCI-H1755; first compound 0.08 µM
  relative viability: 0.562
NCI-H1755; first compound 0.253 µM
  relative viability: 0.58
NCI-H1755; first compound 0.8 µM
  relative viability: 0.591
NCI-H1755; first compound 2.53 µM
  relative viability: 0.491
NCI-H1755; first compound 8 µM
  relative viability: 0.57
NCI-H2085; first compound 0.08 µM
  relative viability: 0.793
NCI-H2085; first compound 0.253 µM
  relative viability: 0.82
NCI-H2085; first compound 0.8 µM
  relative viability: 0.704
NCI-H2085; first compound 2.53 µM
  relative viability: 0.844
NCI-H2085; first compound 8 µM
  relative viability: 0.736
ChaGo-K-1; first compound 0.08 µM
  relative viability: 0.22
ChaGo-K-1; first compound 0.253 µM
  relative viability: 0.235
ChaGo-K-1; first compound 0.8 µM
  relative viability: 0.24
ChaGo-K-1; first compound 2.53 µM
  relative viability: 0.212
ChaGo-K-1; first compound 8 µM
  relative viability: 0.211
LOU-NH91; first compound 0.08 µM
  relative viability: 0.451
LOU-NH91; first compound 0.253 µM
  relative viability: 0.614
LOU-NH91; first compound 0.8 µM
  relative viability: 0.553
LOU-NH91; first compound 2.53 µM
  relative viability: 0.648
LOU-NH91; first compound 8 µM
  relative viability: 0.652
NCI-H2170; first compound 0.08 µM
  relative viability: 0.752
NCI-H2170; first compound 0.253 µM
  relative viability: 0.734
NCI-H2170; first compound 0.8 µM
  relative viability: 0.651
NCI-H2170; first compound 2.53 µM
  relative viability: 0.653
NCI-H2170; first compound 8 µM
  relative viability: 0.55
NCI-H650; first compound 0.08 µM
  relative viability: 0.758
NCI-H650; first compound 0.253 µM
  relative viability: 0.702
NCI-H650; first compound 0.8 µM
  relative viability: 0.662
NCI-H650; first compound 2.53 µM
  relative viability: 0.698
NCI-H650; first compound 8 µM
  relative viability: 0.782
RERF-LC-KJ; first compound 0.08 µM
  relative viability: 0.468
RERF-LC-KJ; first compound 0.253 µM
  relative viability: 0.447
RERF-LC-KJ; first compound 0.8 µM
  relative viability: 0.452
RERF-LC-KJ; first compound 2.53 µM
  relative viability: 0.202
RERF-LC-KJ; first compound 8 µM
  relative viability: 0.248
NCI-H1437; first compound 0.08 µM
  relative viability: 0.397
NCI-H1437; first compound 0.253 µM
  relative viability: 0.389
NCI-H1437; first compound 0.8 µM
  relative viability: 0.35
NCI-H1437; first compound 2.53 µM
  relative viability: 0.362
NCI-H1437; first compound 8 µM
  relative viability: 0.341
HCC-78; first compound 0.08 µM
  relative viability: 0.336
HCC-78; first compound 0.8 µM
  relative viability: 0.319
HCC-78; first compound 2.53 µM
  relative viability: 0.371
HCC-78; first compound 8 µM
  relative viability: 0.327
ABC-1; first compound 0.08 µM
  relative viability: 0.213
ABC-1; first compound 0.253 µM
  relative viability: 0.214
ABC-1; first compound 0.8 µM
  relative viability: 0.184
ABC-1; first compound 2.53 µM
  relative viability: 0.178
ABC-1; first compound 8 µM
  relative viability: 0.203
HOP-62; first compound 0.08 µM
  relative viability: 0.344
HOP-62; first compound 0.253 µM
  relative viability: 0.353
HOP-62; first compound 2.53 µM
  relative viability: 0.331
HOP-62; first compound 8 µM
  relative viability: 0.321
